# Results taken from publication PMC6120666 (The EMBO Journal, 2018).
# Key:
# Experiment in all cases: Drug affinity chromatography with c-ponatinib and LC-MS/MS (ponatinib interactome)
# Format in all cases: binding
# [1] = biological target: T1, proteins of U2OS cell lysate (Homo sapiens, UniProt Q14204); conditions: DYNC1H1, Cytoplasmic dynein 1 heavy chain 1
# T1 construct: Proteins enriched by c-ponatinib from U2OS cell lysate; endogenous in cells; host or cells: U2OS cell lysate
# Summary of the method: (§1)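 U2OS cell lysate in NP-40 lysis buffer (2 mg protein per pulldown) was incubated with amine-derivatized NHS beads for 2 h at 4 °C. Bound proteins were washed, eluted with 100 mM formic acid, reduced, alkylated and trypsin-digested, then identified by nano-UPLC–MS/MS on Orbitrap instruments with a 60 min gradient.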
# [2] = biological target: T2, proteins of U2OS cell lysate (Homo sapiens, UniProt Q15149); conditions: PLEC, Plectin
# T2 construct: Proteins enriched by c-ponatinib from U2OS cell lysate; endogenous in cells; host or cells: U2OS cell lysate
# Summary of the method: as §1
# [3] = biological target: T3, proteins of U2OS cell lysate (Homo sapiens, UniProt A1L0T0); conditions: ILVBL, Acetolactate synthase-like protein
# T3 construct: Proteins enriched by c-ponatinib from U2OS cell lysate; endogenous in cells; host or cells: U2OS cell lysate
# Summary of the method: as §1
# [4] = biological target: T4, proteins of U2OS cell lysate (Homo sapiens, UniProt P14314); conditions: PRKCSH, Glucosidase 2 subunit beta
# T4 construct: Proteins enriched by c-ponatinib from U2OS cell lysate; endogenous in cells; host or cells: U2OS cell lysate
# Summary of the method: as §1
# [5] = biological target: T5, proteins of U2OS cell lysate (Homo sapiens, UniProt Q9Y512); conditions: SAMM50, Sorting and assembly machinery component 50 homolog
# T5 construct: Proteins enriched by c-ponatinib from U2OS cell lysate; endogenous in cells; host or cells: U2OS cell lysate
# Summary of the method: as §1
# [6] = biological target: T6, proteins of U2OS cell lysate (Homo sapiens, UniProt P29317); conditions: EPHA2, Ephrin type-A receptor 2
# T6 construct: Proteins enriched by c-ponatinib from U2OS cell lysate; endogenous in cells; host or cells: U2OS cell lysate
# Summary of the method: as §1
# [7] = biological target: T7, proteins of U2OS cell lysate (Homo sapiens, UniProt O94921); conditions: CDK14, Cyclin-dependent kinase 14
# T7 construct: Proteins enriched by c-ponatinib from U2OS cell lysate; endogenous in cells; host or cells: U2OS cell lysate
# Summary of the method: as §1
# [8] = biological target: T8, proteins of U2OS cell lysate (Homo sapiens, UniProt P62851); conditions: RPS25, 40S ribosomal protein S25
# T8 construct: Proteins enriched by c-ponatinib from U2OS cell lysate; endogenous in cells; host or cells: U2OS cell lysate
# Summary of the method: as §1
# [9] = biological target: T9, proteins of U2OS cell lysate (Homo sapiens, UniProt O76071); conditions: CIAO1, Probable cytosolic iron-sulfur protein assembly protein CIAO1
# T9 construct: Proteins enriched by c-ponatinib from U2OS cell lysate; endogenous in cells; host or cells: U2OS cell lysate
# Summary of the method: as §1
# [10] = biological target: T10, proteins of U2OS cell lysate (Homo sapiens, UniProt P42684); conditions: ABL2, Abelson tyrosine-protein kinase 2
# T10 construct: Proteins enriched by c-ponatinib from U2OS cell lysate; endogenous in cells; host or cells: U2OS cell lysate
# Summary of the method: as §1
# [11] = biological target: T11, proteins of U2OS cell lysate (Homo sapiens, UniProt P51572); conditions: BCAP31, B-cell receptor-associated protein 31
# T11 construct: Proteins enriched by c-ponatinib from U2OS cell lysate; endogenous in cells; host or cells: U2OS cell lysate
# Summary of the method: as §1
# [12] = biological target: T12, proteins of U2OS cell lysate (Homo sapiens, UniProt Q13163); conditions: MAP2K5, Dual specificity mitogen-activated protein kinase kinase 5
# T12 construct: Proteins enriched by c-ponatinib from U2OS cell lysate; endogenous in cells; host or cells: U2OS cell lysate
# Summary of the method: as §1
# [13] = biological target: T13, proteins of U2OS cell lysate (Homo sapiens, UniProt P60174); conditions: TPI1, Triosephosphate isomerase
# T13 construct: Proteins enriched by c-ponatinib from U2OS cell lysate; endogenous in cells; host or cells: U2OS cell lysate
# T13 sequence (P60174 whole entry): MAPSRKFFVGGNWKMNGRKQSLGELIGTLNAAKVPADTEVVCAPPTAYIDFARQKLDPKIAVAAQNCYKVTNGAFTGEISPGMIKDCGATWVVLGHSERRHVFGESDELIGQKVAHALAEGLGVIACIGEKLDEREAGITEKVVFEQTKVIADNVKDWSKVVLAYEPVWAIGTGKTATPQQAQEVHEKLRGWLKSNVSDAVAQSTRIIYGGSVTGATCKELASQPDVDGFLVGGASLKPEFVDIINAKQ
# Summary of the method: as §1
# [14] = biological target: T14, proteins of U2OS cell lysate (Homo sapiens, UniProt P07948); conditions: LYN, Tyrosine-protein kinase Lyn
# T14 construct: Proteins enriched by c-ponatinib from U2OS cell lysate; endogenous in cells; host or cells: U2OS cell lysate
# Summary of the method: as §1
# [15] = biological target: T15, proteins of U2OS cell lysate (Homo sapiens, UniProt Q01650); conditions: SLC7A5, Large neutral amino acids transporter small subunit 1
# T15 construct: Proteins enriched by c-ponatinib from U2OS cell lysate; endogenous in cells; host or cells: U2OS cell lysate
# Summary of the method: as §1
# [16] = biological target: T16, proteins of U2OS cell lysate (Homo sapiens, UniProt P61026); conditions: RAB10, Ras-related protein Rab-10
# T16 construct: Proteins enriched by c-ponatinib from U2OS cell lysate; endogenous in cells; host or cells: U2OS cell lysate
# Summary of the method: as §1
# [17] = biological target: T17, proteins of U2OS cell lysate (Homo sapiens, UniProt P62316); conditions: captured protein SNRPD2, Rank 185
# T17 construct: Proteins enriched by c-ponatinib from U2OS cell lysate; endogenous in cells; host or cells: U2OS cell lysate
# T17 sequence (P62316 whole entry): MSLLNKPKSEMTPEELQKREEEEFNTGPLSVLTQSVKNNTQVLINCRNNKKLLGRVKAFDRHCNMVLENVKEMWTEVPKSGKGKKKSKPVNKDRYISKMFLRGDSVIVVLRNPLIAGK
# Summary of the method: as §1
# [18] = biological target: T18, proteins of U2OS cell lysate (Homo sapiens, UniProt P62266); conditions: captured protein RPS23, Rank 181
# T18 construct: Proteins enriched by c-ponatinib from U2OS cell lysate; endogenous in cells; host or cells: U2OS cell lysate
# Summary of the method: as §1
# [19] = biological target: T19, proteins of U2OS cell lysate (Homo sapiens, UniProt Q00839); conditions: captured protein HNRNPU, Rank 192
# T19 construct: Proteins enriched by c-ponatinib from U2OS cell lysate; endogenous in cells; host or cells: U2OS cell lysate
# Summary of the method: as §1
# T1 sequence (Q14204 whole entry): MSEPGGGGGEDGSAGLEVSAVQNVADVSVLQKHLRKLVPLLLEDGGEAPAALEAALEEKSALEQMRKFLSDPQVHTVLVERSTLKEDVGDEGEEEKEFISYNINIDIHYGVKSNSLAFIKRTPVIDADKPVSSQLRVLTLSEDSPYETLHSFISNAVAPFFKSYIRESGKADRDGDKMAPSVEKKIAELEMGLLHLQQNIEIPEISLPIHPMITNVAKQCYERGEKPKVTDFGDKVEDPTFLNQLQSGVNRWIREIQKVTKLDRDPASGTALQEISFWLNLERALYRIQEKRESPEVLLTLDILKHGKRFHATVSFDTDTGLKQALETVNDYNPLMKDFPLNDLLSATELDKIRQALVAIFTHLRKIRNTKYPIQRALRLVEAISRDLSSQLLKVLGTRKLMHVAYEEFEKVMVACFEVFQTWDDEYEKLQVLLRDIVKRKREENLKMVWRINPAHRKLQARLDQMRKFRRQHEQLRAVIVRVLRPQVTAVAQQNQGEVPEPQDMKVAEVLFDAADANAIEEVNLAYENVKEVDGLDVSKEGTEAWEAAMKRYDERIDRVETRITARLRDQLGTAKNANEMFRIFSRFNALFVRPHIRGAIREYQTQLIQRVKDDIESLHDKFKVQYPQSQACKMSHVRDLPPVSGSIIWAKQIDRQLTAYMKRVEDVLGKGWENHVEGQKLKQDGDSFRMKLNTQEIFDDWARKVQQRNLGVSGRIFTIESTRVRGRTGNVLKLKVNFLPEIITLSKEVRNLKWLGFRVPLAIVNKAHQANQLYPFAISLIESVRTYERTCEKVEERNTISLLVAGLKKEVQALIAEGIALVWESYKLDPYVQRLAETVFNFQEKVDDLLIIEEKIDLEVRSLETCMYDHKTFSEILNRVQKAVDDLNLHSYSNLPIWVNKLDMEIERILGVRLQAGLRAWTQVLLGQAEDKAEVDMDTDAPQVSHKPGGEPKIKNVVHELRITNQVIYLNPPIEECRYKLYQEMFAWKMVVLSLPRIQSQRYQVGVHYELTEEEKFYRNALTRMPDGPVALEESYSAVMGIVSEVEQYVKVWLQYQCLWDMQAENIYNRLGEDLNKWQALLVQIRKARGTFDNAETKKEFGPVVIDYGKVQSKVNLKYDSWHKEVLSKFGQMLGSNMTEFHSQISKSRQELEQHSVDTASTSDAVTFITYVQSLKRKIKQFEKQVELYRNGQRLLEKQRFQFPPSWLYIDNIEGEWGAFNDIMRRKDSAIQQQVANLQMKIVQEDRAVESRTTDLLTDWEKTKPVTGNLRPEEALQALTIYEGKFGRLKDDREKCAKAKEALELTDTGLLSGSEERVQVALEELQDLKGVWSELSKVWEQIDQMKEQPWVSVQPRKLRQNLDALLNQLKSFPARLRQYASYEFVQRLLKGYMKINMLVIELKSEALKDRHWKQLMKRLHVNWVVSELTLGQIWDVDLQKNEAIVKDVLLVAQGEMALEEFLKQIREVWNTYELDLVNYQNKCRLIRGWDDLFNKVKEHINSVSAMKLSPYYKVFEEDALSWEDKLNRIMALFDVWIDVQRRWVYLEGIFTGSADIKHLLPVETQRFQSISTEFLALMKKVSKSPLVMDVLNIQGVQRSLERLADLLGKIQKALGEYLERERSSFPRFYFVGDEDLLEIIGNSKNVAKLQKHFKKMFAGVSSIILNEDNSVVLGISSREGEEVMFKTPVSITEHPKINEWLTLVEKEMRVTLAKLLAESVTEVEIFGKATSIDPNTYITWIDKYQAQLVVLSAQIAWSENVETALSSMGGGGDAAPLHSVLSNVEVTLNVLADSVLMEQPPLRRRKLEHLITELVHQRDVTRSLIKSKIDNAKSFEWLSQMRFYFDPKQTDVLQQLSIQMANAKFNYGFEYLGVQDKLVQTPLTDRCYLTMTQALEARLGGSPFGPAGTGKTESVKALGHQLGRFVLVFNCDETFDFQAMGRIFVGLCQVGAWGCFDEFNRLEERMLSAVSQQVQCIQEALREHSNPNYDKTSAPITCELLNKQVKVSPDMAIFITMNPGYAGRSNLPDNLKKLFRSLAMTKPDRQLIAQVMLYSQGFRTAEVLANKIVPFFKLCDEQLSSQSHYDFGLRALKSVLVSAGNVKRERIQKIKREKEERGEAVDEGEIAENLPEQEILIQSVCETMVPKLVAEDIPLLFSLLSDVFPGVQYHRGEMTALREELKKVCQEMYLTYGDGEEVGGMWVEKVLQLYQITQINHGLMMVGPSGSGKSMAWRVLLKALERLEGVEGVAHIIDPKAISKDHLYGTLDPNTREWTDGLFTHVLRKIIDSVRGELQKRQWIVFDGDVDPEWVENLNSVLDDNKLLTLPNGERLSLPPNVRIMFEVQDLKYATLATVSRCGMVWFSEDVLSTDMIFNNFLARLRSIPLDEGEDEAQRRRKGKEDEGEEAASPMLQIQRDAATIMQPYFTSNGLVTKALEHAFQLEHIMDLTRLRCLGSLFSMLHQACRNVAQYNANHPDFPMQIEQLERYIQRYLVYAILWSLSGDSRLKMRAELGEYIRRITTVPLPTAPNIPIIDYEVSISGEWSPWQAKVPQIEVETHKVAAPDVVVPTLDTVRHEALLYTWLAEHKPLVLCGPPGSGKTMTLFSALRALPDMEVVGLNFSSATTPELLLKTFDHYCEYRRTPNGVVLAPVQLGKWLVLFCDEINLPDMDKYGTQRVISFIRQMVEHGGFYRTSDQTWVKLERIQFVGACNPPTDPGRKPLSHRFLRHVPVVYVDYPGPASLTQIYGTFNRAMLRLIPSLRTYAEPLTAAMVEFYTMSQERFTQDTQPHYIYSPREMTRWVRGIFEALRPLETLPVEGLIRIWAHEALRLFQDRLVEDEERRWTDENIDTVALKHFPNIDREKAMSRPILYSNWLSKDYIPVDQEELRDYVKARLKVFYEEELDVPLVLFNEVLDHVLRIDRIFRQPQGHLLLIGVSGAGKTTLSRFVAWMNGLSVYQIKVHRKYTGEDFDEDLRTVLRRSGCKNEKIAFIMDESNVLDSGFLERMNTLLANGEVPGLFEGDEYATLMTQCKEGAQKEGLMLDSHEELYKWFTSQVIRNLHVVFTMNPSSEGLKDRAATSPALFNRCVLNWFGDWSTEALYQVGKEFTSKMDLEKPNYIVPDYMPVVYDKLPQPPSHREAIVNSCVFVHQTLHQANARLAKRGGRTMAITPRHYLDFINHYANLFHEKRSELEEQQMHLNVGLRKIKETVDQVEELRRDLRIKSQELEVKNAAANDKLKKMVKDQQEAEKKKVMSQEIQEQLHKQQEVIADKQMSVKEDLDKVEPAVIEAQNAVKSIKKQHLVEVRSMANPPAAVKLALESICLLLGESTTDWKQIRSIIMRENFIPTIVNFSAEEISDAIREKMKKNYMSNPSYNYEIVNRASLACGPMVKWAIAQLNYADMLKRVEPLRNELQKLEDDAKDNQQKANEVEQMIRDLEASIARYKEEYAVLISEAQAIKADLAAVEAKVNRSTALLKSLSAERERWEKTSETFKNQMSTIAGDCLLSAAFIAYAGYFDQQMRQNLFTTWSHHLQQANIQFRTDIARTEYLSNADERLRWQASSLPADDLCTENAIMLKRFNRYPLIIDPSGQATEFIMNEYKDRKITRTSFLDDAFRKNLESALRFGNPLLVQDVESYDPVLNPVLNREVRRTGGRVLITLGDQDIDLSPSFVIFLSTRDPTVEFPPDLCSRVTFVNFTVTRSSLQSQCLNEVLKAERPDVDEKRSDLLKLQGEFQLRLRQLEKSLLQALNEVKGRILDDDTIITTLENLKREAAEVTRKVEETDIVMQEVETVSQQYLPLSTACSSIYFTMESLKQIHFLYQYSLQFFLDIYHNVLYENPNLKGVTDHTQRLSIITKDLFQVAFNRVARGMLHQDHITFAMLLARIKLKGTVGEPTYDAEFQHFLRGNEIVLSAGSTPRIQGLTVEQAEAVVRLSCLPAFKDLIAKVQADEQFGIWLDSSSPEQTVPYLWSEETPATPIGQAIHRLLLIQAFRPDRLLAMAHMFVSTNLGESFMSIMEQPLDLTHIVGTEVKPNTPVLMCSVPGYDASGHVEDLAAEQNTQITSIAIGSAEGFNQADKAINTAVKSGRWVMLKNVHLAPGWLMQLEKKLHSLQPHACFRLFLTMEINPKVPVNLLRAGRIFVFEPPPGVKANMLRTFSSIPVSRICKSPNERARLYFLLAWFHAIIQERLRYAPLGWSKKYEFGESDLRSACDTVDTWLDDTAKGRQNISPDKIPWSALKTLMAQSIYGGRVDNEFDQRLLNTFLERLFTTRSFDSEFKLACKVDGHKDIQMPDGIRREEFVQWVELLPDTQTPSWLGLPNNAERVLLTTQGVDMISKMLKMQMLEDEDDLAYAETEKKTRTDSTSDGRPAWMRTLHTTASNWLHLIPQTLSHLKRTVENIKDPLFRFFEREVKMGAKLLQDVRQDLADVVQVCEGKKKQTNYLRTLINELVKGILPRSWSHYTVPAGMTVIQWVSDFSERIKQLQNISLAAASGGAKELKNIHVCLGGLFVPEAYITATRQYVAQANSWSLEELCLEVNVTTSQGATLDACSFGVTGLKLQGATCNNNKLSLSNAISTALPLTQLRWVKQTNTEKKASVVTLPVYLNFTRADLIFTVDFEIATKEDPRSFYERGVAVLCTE
SMILES,Average LFQ PON_WT [1],Average LFQ PON_WT [2],Average LFQ PON_WT [3],Average LFQ PON_WT [4],Average LFQ PON_WT [5],Average LFQ PON_WT [6],Average LFQ PON_WT [7],Average LFQ PON_WT [8],Average LFQ PON_WT [9],Average LFQ PON_WT [10],Average LFQ PON_WT [11],Average LFQ PON_WT [12],Average LFQ PON_WT [13],Average LFQ PON_WT [14],Average LFQ PON_WT [15],Average LFQ PON_WT [16],Average LFQ intensity [17],Average LFQ intensity [18],Average LFQ intensity [19]
Cc1ccc(C(=O)Nc2ccc(CN3CCN(C)CC3)c(C(F)(F)F)c2)cc1C#Cc1cnc2cccnn12 [PON],24.2612,27.1637,23.3851,21.2991,20.9007,29.5288,25.6287,23.6854,21.1391,26.1742,23.9511,19.6379,20.2344,23.7419,21.4059,19.7729,–,–,–
"Cc1ccc(C(=O)Nc2ccc(CN3CCN(CCCN)CC3)c(C(F)(F)F)c2)cc1C#Cc1cnc2cccnn12 [c-ponatinib, reference compound]",–,–,–,–,–,–,–,–,–,–,–,–,–,–,–,–,22.0908,22.1736,21.9786
